{"source": "patent US20230293526A1", "about": "“METHOD FOR TREATING CANCER WITH A REVERSE TRANSCRIPTASE INHIBITOR” (PrimeFour Therapeutics, Inc., priority 2020, published 2023)", "experiment_in_all_cases": "Cell proliferation CellTiterGlo Ex.2", "assay_type_in_all_cases": "cell-based", "key": {"Jurkat": {"system": "Jurkat", "settings": "Homo sapiens; Jurkat (Blood), 72 h", "description": "(§1) A dose response relationship on cell proliferation was assessed for Compound 13 on 140 tumor cell lines. Briefly, compound treatment of cells started one day after seeding with a final DMSO concentration of 0.100, and was performed by nanodrop-dispensing using a Tecan Dispenser. 0.10% DMSO (solvent) and Staurosporine (10 μM) served as high control (10000 viability) and low control (000 viability), respectively. Compound 13 was tested at 10, 3, 1, 0.3, 0.1, 0.03, 0.01, and 0.003 μM.\n(§2) Cells were cultured in the appropriate media. For the assays, cells were seeded in white cell culture-treated flat and clear bottom multiwell plates and incubated at 37° C. overnight before compound was added. After incubation for 72 h at 37° C. at 5% or 10% CO2 dependent on the medium, cell plates were equilibrated to room temperature for one hour, CellTiterGlo reagent (Promega) was added and luminescence was measured approximately an hour later using a luminometer.\n(§3) Raw data were converted into percent cell viability relative to the high and low control, which were set to 10000 and 000, respectively."}, "JVM-3": {"system": "JVM-3", "settings": "Homo sapiens; JVM-3 (Blood), 72 h", "description": "as §1, §2, §3"}, "MOLT-4": {"system": "MOLT-4", "settings": "Homo sapiens; MOLT-4 (Blood), 72 h", "description": "as §1, §2, §3"}, "A549": {"system": "A549", "settings": "Homo sapiens; A549 (Lung), 72 h", "description": "as §1, §2, §3"}, "JIMT-1": {"system": "JIMT-1", "settings": "Homo sapiens; JIMT-1 (Breast), 72 h", "description": "as §1, §2, §3"}, "SK-OV3": {"system": "SK-OV3", "settings": "Homo sapiens, SK-OV-3; SK-OV3 (Ovary), 72 h", "description": "as §1, §2, §3"}, "Mia PaCA 2": {"system": "Mia PaCA 2", "settings": "Homo sapiens; Mia PaCA 2 (Pancreas), 72 h", "description": "as §1, §2, §3"}, "U87MG": {"system": "U87MG", "settings": "Homo sapiens, U-87 MG; U87MG (Brain), 72 h", "description": "as §1, §2, §3"}, "Hutu 80": {"system": "Hutu 80", "settings": "Homo sapiens, HuTu80; Hutu 80 (Duodenum), 72 h", "description": "as §1, §2, §3"}, "SW-1783": {"system": "SW-1783", "settings": "Homo sapiens, SW1783; SW-1783 (Brain), 72 h", "description": "as §1, §2, §3"}, "T-47D": {"system": "T-47D", "settings": "Homo sapiens, T47D; T-47D (Breast), 72 h", "description": "as §1, §2, §3"}, "U2OS": {"system": "U2OS", "settings": "Homo sapiens; U2OS (Bone), 72 h", "description": "as §1, §2, §3"}, "SK-LU-1": {"system": "SK-LU-1", "settings": "Homo sapiens; SK-LU-1 (Lung), 72 h", "description": "as §1, §2, §3"}, "MDA-MB-468": {"system": "MDA-MB-468", "settings": "Homo sapiens; MDA-MB-468 (Breast), 72 h", "description": "as §1, §2, §3"}, "LOVO": {"system": "LOVO", "settings": "Homo sapiens; LOVO (Colon), 72 h", "description": "as §1, §2, §3"}, "NCI-H1573": {"system": "NCI-H1573", "settings": "Homo sapiens; NCI-H1573 (Lung), 72 h", "description": "as §1, §2, §3"}, "A427": {"system": "A427", "settings": "Homo sapiens, A-427; A427 (Lung), 72 h", "description": "as §1, §2, §3"}, "A2058": {"system": "A2058", "settings": "Homo sapiens; A2058 (Skin), 72 h", "description": "as §1, §2, §3"}, "OCI-AML5": {"system": "OCI-AML5", "settings": "Homo sapiens, OCI-AML-5; OCI-AML5 (Blood), 72 h", "description": "as §1, §2, §3"}, "SW948": {"system": "SW948", "settings": "Homo sapiens; SW948 (Colon), 72 h", "description": "as §1, §2, §3"}, "NCI-H292": {"system": "NCI-H292", "settings": "Homo sapiens; NCI-H292 (Lung), 72 h", "description": "as §1, §2, §3"}, "OCI-AML3": {"system": "OCI-AML3", "settings": "Homo sapiens, OCI-AML-3; OCI-AML3 (Blood), 72 h", "description": "as §1, §2, §3"}, "HL-60": {"system": "HL-60", "settings": "Homo sapiens; HL-60 (Blood), 72 h", "description": "as §1, §2, §3"}, "NCI-H1563": {"system": "NCI-H1563", "settings": "Homo sapiens; NCI-H1563 (Lung), 72 h", "description": "as §1, §2, §3"}, "EFM-192A": {"system": "EFM-192A", "settings": "EFM-192A (Breast), 72 h", "description": "as §1, §2, §3"}, "KMS-12-BM": {"system": "KMS-12-BM", "settings": "Homo sapiens; KMS-12-BM (Blood), 72 h", "description": "as §1, §2, §3"}, "T98G": {"system": "T98G", "settings": "Homo sapiens; T98G (Brain), 72 h", "description": "as §1, §2, §3"}, "HCC 1569": {"system": "HCC 1569", "settings": "Homo sapiens, HCC1569; HCC 1569 (Breast), 72 h", "description": "as §1, §2, §3"}, "NALM-6": {"system": "NALM-6", "settings": "Homo sapiens; NALM-6 (Blood), 72 h", "description": "as §1, §2, §3"}, "A375": {"system": "A375", "settings": "Homo sapiens, A-375; A375 (Skin), 72 h", "description": "as §1, §2, §3"}, "NCI-H1703": {"system": "NCI-H1703", "settings": "Homo sapiens; NCI-H1703 (Lung), 72 h", "description": "as §1, §2, §3"}, "SK-ES-1": {"system": "SK-ES-1", "settings": "Homo sapiens, SK-ES1; SK-ES-1 (Bone), 72 h", "description": "as §1, §2, §3"}, "MV4-11": {"system": "MV4-11", "settings": "Homo sapiens; MV4-11 (Blood), 72 h", "description": "as §1, §2, §3"}}}
{"smiles": "C#C[C@]1(CO)O[C@@H](n2cnc3c(=O)[nH]c(N)nc32)C[C@@H]1O", "note": "[compound 13]", "values": [{"measurement": "IC50", "setting": "Jurkat", "value": 1.17, "unit": "µM"}, {"measurement": "IC50", "setting": "JVM-3", "value": 2.45, "unit": "µM"}, {"measurement": "IC50", "setting": "MOLT-4", "value": 0.51, "unit": "µM"}, {"measurement": "IC50", "setting": "A549", "value": "> 10", "unit": "µM"}, {"measurement": "IC50", "setting": "JIMT-1", "value": 7, "unit": "µM"}, {"measurement": "IC50", "setting": "SK-OV3", "value": 4, "unit": "µM"}, {"measurement": "IC50", "setting": "Mia PaCA 2", "value": "> 10", "unit": "µM"}, {"measurement": "IC50", "setting": "U87MG", "value": 6.39, "unit": "µM"}, {"measurement": "IC50", "setting": "Hutu 80", "value": 1.44, "unit": "µM"}, {"measurement": "IC50", "setting": "SW-1783", "value": 2.25, "unit": "µM"}, {"measurement": "IC50", "setting": "T-47D", "value": "> 10", "unit": "µM"}, {"measurement": "IC50", "setting": "U2OS", "value": 2.18, "unit": "µM"}, {"measurement": "IC50", "setting": "SK-LU-1", "value": "> 10", "unit": "µM"}, {"measurement": "IC50", "setting": "MDA-MB-468", "value": "> 10", "unit": "µM"}, {"measurement": "IC50", "setting": "LOVO", "value": 8.21, "unit": "µM"}, {"measurement": "IC50", "setting": "NCI-H1573", "value": 8.59, "unit": "µM"}, {"measurement": "IC50", "setting": "A427", "value": 0.55, "unit": "µM"}, {"measurement": "IC50", "setting": "A2058", "value": "> 10", "unit": "µM"}, {"measurement": "IC50", "setting": "OCI-AML5", "value": 1.37, "unit": "µM"}, {"measurement": "IC50", "setting": "SW948", "value": 5.02, "unit": "µM"}, {"measurement": "IC50", "setting": "NCI-H292", "value": 8.56, "unit": "µM"}, {"measurement": "IC50", "setting": "OCI-AML3", "value": 7.15, "unit": "µM"}, {"measurement": "IC50", "setting": "HL-60", "value": 1.13, "unit": "µM"}, {"measurement": "IC50", "setting": "NCI-H1563", "value": "> 10", "unit": "µM"}, {"measurement": "IC50", "setting": "EFM-192A", "value": "> 10", "unit": "µM"}, {"measurement": "IC50", "setting": "KMS-12-BM", "value": 0.96, "unit": "µM"}, {"measurement": "IC50", "setting": "T98G", "value": "> 10", "unit": "µM"}, {"measurement": "IC50", "setting": "HCC 1569", "value": "> 10", "unit": "µM"}, {"measurement": "IC50", "setting": "NALM-6", "value": 0.25, "unit": "µM"}, {"measurement": "IC50", "setting": "A375", "value": 2.37, "unit": "µM"}, {"measurement": "IC50", "setting": "NCI-H1703", "value": 9.16, "unit": "µM"}, {"measurement": "IC50", "setting": "SK-ES-1", "value": 4.99, "unit": "µM"}, {"measurement": "IC50", "setting": "MV4-11", "value": 0.21, "unit": "µM"}]}
